# Laboratory results published in EP0496162A2, “Peptide inhibitors of RAS-GAP interaction” (MERCK & CO. INC., priority 1990, dated 1992).
# No end group written: not given here.
# Key:
# [1] = format: physicochemical
# Method: (§1) Ras peptides were dissolved in either 100% dimethyl formamide (DMF, American Burdick and Jackson) or 100% dimethyl sulfoxide (DMSO, Fluka UV-spectroscopy grade) at a calculated peptide concentration of 1-4 mM. Following 1 minute in a Sonicor SC-200 bath sonicator at room temperature, the peptide solutions were vortexed, and then centrifuged for 5 minutes at room temperature in an Eppendorf microfuge to remove any undissolved material. 20 µL of the cleared peptide solutions were then added to 80 µL of Buffer D in a dilution series covering a range of peptide concentrations from 0.02 µM up to the maximum solubility limit for each peptide. In each dilution, the solvent concentration was maintained at 20%. These peptides solutions were then centrifuged for 5 minutes at room temperature at 10,000 x g, and the cleared supernatants were divided into 2 parts. One part of each cleared peptide dilution was used in a GAP competition assay: 40 µL was added to a 5 µL solution containing 0.1 mg/mL BSA plus 240 fmol Ha-ras p21-[γ-³²P]GTP. Reactions were initiated upon addition of 5 µL of diluted GAP (10 fmol), and analyzed as described above.
# The other portion of the cleared peptide solution was measured spectrophotometrically to determine solubility and concentration of the peptides. Extinction coefficients were determined by measuring the absorbance at 277 nm of 2 peptides whose exact concentrations were quantitated by amino acid analysis. The extinction coefficients for peptide Ras 17-37 dissolved in buffer D/20% DMF or peptide Ras 91-103 (SEQ ID NO:14)dissolved in water/20% DMSO, were 2580 cm⁻¹M⁻¹ and 2230 cm⁻¹ M⁻¹, respectively. These values were used to determine the exact concentration for each peptide used at each point in the competition assay. In addition, peptide solubility was confirmed by comparing the light scattering at 600 nm for each peptide solution measured before and after centrifugation. Only concentrations reflecting 100% solubility were used in the dose response curves, and the maximum concentration used for each peptide competitor indicates the limit of solubility for that peptide.
# Ras-GAP interaction = biological target: T1, Ras-GAP interaction (Bos taurus, UniProt P09851); assay: Ras-GAP interaction inhibition assay (GAP-stimulated Ras GTPase, charcoal adsorption); format: biochemical, bovine; details: concentration of peptide required to reduce GAP stimulated Ras-GTP hydrolysis by 50%; 10 fmol GAP, 240 fmol Ha ras p21-GTP, 4 minutes at 24°C
# T1 construct: made in house; host or cells: GAP: E. coli JM109 (plasmid pYO); Ha-Ras: E. coli RRllaci^q (plasmid pRas[Gly12 Ala59])
# T1 sequence (P09851 1-1044): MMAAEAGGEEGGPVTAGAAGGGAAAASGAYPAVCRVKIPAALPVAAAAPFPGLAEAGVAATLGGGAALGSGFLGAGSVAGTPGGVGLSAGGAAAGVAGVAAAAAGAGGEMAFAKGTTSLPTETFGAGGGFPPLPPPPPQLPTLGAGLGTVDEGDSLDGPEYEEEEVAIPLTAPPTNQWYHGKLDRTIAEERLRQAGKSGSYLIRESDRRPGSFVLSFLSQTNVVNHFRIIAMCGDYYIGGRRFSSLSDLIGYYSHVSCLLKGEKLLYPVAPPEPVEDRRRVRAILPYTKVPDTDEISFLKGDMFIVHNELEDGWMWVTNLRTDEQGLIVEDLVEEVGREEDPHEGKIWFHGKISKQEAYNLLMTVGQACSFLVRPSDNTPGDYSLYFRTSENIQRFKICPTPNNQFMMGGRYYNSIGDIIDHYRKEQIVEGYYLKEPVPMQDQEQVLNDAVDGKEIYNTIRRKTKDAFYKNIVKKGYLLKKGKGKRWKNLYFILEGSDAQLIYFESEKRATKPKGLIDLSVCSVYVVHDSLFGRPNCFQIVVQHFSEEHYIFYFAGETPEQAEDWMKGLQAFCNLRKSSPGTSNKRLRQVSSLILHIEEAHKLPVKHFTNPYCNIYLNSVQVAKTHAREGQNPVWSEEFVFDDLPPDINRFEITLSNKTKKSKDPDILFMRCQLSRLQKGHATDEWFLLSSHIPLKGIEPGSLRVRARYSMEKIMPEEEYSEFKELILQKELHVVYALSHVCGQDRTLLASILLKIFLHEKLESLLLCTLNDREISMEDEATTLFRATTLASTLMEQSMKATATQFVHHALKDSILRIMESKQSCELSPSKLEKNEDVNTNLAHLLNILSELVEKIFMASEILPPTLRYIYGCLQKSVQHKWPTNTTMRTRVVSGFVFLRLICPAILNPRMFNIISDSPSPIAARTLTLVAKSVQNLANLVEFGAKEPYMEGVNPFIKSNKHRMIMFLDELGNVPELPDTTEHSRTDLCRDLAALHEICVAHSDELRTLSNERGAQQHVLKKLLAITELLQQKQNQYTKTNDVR
# Method: The activity of the synthetic peptides of the present invention, as inhibitors of the interaction of ras with GAP was determined in an assay which measures GAP dependent, Ras GTPase activity. Bovine GAP was either purified from fresh bovine brains or recombinantly produced in E. coli. It is understood that the methods of the present invention may utilize either the recombinant full length GAP or the bovine brain derived GAP. In addition, GAP from other species, such as human and mouse, may be substituted for bovine GAP since they share about 95% amino acid homology. Truncated recombinant forms of GAP are also suitable for use in the Ras-GAP interaction assay [Marshall, M.S., et al., (1989), EMBO J., 8, pp1105-1110]. However, for the screening of synthetic peptides for their ability to block the Ras-GAP interaction, the recombinant, full length GAP is preferred.
# The Ras protein utilized in the Ras-GAP GTPase assay of the present invention is Harvey ras (Ha-ras). It is understood that other forms of Ras protein are suitable for use in the present invention. Other suitable forms of Ras protein include, but are not limited to, Kirsten Ras, yeast S. cerevisiae RAS, and N-Ras. Furthermore, it is readily apparent to those skilled in the art that any form of Ras protein which is capable of interacting with GAP is suitable for use in the Ras-GAP GTPase assay.
# Ras GTPase activity was measured by the charcoal adsorption procedure. Each 50 µL reaction contained 10 fmol purified GAP, 240 fmol Ha ras p21-[γ ³²P] GTP and 1 mg/mL BSA in buffer D. Varying amounts of the competing peptides were added as indicated. Prewarmed reactions (24°C) were initiated by the addition of GAP, then incubated for 4 minutes at 24°C. The reactions were terminated by the addition of 5 volumes of ice cold 5% activated charcoal (Sigma: HCl washed) in 50 mM NaH₂PO₄. GTPase activity was quantitated by measuring the free ³²P-orthophosphate in the cleared supernatant after centrifugation of the charcoal mix. GAP-stimulated Ras GTPase activity in the absence of competitors was 40-60 fmol Ras-GTP hydrolyzed; the 100% control value. In the absence of GAP, GTP hydrolysis was not detectable during the incubation period of the assay. Inhibitors of this assay block GAP-stimulated Ras GTPase without impairing intrinsic Ras GTPase, assayed in the absence of GAP following incubation at 24°C for one hour.
# as §1
Compound,Maximum Solubility [1],IC50 (Ras-GAP interaction),IC50* (Ras-GAP interaction)
CC[C@H](C)[C@H](NC(=O)[C@H](CC(C)C)NC(=O)[C@H](CCC(N)=O)NC(=O)[C@@H](NC(=O)[C@@H](NC(=O)[C@H](CC(C)C)NC(=O)[C@H](C)NC(=O)[C@@H](N)CO)[C@@H](C)O)[C@@H](C)CC)C(=O)N[C@@H](CCC(N)=O)C(=O)N[C@@H](CC(N)=O)C(=O)N[C@@H](Cc1c[nH]cn1)C(=O)N[C@@H](Cc1ccccc1)C(=O)N[C@H](C(=O)N[C@@H](CC(=O)O)C(=O)N[C@@H](CCC(=O)O)C(=O)N[C@@H](Cc1ccc(O)cc1)C(=O)O)C(C)C [Ras 17-32],19 µM,0.9 µM,
LIQNHFVDEYDPTIE [Ras 23-37],250 µM,,no inhibition
SALTIQLIQNHFVDEYDPTIE [Ras 17-37],40 µM,3.6 µM,
